# In PMC12073402, “A Selective MAP3K1 Inhibitor Facilitates Discovery of NPM1 as a Member of the Network” (Molecules, 2025):
# Experiments:
# Assay in all cases: KiNativ kinome profiling in PANC-1 lysate
# Type in all cases: binding
# [1] = target: T1, ARAF (Homo sapiens, UniProt P10398); conditions: Lys2
# T1 construct: endogenous in cells; host or cells: PANC-1 cell lysate
# Procedure, shortened: (§1)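 PANC-1 lysates were incubated with 5 μM inhibitor or DMSO, then labeled with a desthiobiotin-ATP acyl-phosphate probe that biotinylates conserved kinase lysines. Tryptic peptides were streptavidin-enriched and quantified by LC-MS/MS, reported as % change in MS signal from duplicate treated and duplicate control samples.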
# [2] = target: T2, AurB (Homo sapiens, UniProt Q96GD4); conditions: Lys1
# T2 construct: endogenous in cells; host or cells: PANC-1 cell lysate
# Procedure, shortened: as §1
# [3] = test system: CDK11, CDK8; conditions: 5 µM; Lys2; DLKPANILVMGEGPER
# Procedure, shortened: as §1
# [4] = target: T3, CRK7 (Homo sapiens, UniProt Q9NYV4); conditions: Lys2
# T3 construct: endogenous in cells; host or cells: PANC-1 cell lysate
# Procedure, shortened: as §1
# [5] = target: T4, Erk1 (Homo sapiens, UniProt P27361); conditions: Lys2
# T4 construct: endogenous in cells; host or cells: PANC-1 lysate
# Procedure, shortened: as §1
# [6] = target: T5, FAM20B (Homo sapiens, UniProt O75063); conditions: ATP
# T5 construct: endogenous in cells; host or cells: PANC-1 lysate
# Procedure, shortened: as §1
# [7] = target: T6, LOK (Homo sapiens, UniProt O94804)
# T6 construct: we opted to conduct a kinome screen (KiNativ) in PANC-1 cell lysates; endogenous in cells; host or cells: PANC-1 cell lysate
# Procedure, shortened: as §1
# [8] = target: T7, MPSK1 (Homo sapiens, UniProt O75716); conditions: Lys2
# T7 construct: endogenous in cells; host or cells: PANC-1
# Procedure, shortened: as §1
# [9] = target: T8, MSK1 domain1 (Homo sapiens, UniProt O75582); conditions: Lys2
# T8 construct: endogenous in cells; host or cells: PANC-1
# Procedure, shortened: as §1
# [10] = test system: NDR1, NDR2; conditions: 5 µM; ATP Loop; LSDFGLCTGLKK
# Procedure, shortened: as §1
# [11] = target: T9, NEK9 (Homo sapiens, UniProt Q8TD19)
# T9 construct: endogenous in cells; host or cells: PANC-1 cell lysate
# T9 sequence (Q8TD19 1-979): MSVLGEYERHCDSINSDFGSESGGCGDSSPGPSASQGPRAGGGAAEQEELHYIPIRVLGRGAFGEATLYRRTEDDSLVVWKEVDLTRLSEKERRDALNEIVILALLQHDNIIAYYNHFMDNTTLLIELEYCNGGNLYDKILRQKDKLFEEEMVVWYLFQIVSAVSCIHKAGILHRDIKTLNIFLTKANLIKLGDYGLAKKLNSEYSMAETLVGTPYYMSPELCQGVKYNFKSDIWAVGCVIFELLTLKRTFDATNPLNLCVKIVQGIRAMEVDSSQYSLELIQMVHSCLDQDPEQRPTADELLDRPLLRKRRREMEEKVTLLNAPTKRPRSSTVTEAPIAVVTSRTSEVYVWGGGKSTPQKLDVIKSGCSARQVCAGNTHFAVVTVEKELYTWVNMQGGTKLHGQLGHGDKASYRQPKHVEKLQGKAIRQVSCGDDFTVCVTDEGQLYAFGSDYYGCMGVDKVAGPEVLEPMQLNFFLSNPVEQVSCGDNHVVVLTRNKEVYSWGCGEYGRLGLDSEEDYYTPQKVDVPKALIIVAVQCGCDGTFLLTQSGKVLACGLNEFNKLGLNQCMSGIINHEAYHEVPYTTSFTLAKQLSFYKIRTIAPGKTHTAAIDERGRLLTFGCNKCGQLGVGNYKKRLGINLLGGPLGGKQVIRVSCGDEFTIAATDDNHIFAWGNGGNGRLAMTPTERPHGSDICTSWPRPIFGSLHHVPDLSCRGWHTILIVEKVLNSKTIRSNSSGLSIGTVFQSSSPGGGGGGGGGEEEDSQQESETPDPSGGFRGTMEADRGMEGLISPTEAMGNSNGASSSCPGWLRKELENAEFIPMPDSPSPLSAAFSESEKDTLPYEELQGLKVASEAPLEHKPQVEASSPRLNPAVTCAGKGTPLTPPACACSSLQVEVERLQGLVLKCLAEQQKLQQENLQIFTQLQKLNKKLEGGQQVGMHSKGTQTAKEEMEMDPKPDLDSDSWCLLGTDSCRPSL
# Procedure, shortened: as §1
# [12] = target: T10, PIK3C2B (Homo sapiens, UniProt O00750); conditions: ATP
# T10 construct: endogenous in cells; host or cells: PANC-1 cell lysate
# Procedure, shortened: as §1
# [13] = target: T11, PIK3CA (Homo sapiens, UniProt P42336); conditions: ATP
# T11 construct: endogenous in cells; host or cells: PANC-1 cell lysate
# Procedure, shortened: as §1
# [14] = target: T12, PIP5K3 (Homo sapiens, UniProt Q9Y2I7); conditions: ATP
# T12 construct: endogenous in cells; host or cells: PANC-1 cell lysate
# Procedure, shortened: as §1
# [15] = target: T13, PKD2 (Homo sapiens, UniProt Q9BZL6); conditions: Lys1
# T13 construct: endogenous in cells; host or cells: PANC-1 cell lysate
# Procedure, shortened: as §1
# [16] = test system: TAO1, TAO3; conditions: 5 µM; Lys2; DIKAGNILLTEPGQVK
# Procedure, shortened: as §1
# T6 sequence (O94804 whole entry): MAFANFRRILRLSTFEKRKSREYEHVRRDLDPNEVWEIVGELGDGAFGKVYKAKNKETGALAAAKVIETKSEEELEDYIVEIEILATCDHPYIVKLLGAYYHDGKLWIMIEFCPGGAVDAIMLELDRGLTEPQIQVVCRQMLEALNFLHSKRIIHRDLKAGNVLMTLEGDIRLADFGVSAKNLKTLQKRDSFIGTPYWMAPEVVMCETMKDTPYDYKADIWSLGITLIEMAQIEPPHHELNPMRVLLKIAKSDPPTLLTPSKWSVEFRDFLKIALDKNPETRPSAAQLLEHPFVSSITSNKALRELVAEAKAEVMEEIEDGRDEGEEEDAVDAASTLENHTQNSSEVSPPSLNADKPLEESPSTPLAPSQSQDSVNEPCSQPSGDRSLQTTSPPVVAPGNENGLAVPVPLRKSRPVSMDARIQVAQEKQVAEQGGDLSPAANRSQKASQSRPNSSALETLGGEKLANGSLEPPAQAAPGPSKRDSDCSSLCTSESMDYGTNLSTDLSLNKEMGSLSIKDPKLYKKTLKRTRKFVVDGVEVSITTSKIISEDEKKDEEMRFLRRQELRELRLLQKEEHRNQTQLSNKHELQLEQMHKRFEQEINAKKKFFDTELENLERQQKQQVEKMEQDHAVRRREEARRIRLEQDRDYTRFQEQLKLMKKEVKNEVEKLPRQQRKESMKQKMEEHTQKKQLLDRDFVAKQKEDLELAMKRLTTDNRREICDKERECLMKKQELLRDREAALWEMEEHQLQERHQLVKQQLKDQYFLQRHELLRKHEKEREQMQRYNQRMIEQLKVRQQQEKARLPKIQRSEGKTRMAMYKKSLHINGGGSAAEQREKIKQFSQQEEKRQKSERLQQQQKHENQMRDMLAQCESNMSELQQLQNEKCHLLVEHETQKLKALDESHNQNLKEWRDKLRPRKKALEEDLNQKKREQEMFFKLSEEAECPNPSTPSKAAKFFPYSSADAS
# T4 sequence (P27361 whole entry): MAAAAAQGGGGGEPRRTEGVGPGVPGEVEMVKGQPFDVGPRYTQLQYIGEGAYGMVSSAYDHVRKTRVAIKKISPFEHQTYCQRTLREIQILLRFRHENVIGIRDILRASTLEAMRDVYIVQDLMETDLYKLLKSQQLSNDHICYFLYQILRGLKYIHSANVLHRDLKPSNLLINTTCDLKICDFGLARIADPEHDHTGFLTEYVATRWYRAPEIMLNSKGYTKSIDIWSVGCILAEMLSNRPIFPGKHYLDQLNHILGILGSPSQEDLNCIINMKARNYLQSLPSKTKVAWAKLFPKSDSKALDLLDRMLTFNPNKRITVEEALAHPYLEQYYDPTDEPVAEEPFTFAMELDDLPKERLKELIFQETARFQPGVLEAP
# T11 sequence (P42336 whole entry): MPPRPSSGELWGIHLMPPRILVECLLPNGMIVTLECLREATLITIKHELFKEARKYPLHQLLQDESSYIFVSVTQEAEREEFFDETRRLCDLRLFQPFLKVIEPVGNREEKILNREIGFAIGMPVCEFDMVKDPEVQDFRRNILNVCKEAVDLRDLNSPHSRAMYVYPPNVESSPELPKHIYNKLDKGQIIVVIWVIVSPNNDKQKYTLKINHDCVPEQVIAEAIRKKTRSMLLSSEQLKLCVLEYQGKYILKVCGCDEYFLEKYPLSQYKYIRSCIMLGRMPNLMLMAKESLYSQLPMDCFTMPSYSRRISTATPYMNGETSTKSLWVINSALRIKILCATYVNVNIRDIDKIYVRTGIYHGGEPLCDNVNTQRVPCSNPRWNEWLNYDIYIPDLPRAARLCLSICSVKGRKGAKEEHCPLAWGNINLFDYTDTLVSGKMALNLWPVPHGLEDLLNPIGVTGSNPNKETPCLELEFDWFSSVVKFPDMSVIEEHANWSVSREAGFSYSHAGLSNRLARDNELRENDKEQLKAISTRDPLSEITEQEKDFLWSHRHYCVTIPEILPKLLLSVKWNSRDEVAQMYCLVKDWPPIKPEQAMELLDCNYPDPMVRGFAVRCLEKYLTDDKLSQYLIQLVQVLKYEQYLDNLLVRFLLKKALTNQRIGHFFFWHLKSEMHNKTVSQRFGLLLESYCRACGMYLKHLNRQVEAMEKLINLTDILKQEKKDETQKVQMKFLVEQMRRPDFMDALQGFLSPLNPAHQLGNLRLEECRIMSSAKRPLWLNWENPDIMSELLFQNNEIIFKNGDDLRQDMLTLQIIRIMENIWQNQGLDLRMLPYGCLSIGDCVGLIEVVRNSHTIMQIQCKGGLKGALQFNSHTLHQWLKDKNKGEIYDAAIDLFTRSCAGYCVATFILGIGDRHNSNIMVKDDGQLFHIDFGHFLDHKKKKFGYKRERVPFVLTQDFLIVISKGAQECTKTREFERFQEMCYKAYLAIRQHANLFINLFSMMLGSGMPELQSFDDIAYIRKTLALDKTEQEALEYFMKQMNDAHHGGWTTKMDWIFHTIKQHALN
# T11 sequence (P27986 whole entry partner): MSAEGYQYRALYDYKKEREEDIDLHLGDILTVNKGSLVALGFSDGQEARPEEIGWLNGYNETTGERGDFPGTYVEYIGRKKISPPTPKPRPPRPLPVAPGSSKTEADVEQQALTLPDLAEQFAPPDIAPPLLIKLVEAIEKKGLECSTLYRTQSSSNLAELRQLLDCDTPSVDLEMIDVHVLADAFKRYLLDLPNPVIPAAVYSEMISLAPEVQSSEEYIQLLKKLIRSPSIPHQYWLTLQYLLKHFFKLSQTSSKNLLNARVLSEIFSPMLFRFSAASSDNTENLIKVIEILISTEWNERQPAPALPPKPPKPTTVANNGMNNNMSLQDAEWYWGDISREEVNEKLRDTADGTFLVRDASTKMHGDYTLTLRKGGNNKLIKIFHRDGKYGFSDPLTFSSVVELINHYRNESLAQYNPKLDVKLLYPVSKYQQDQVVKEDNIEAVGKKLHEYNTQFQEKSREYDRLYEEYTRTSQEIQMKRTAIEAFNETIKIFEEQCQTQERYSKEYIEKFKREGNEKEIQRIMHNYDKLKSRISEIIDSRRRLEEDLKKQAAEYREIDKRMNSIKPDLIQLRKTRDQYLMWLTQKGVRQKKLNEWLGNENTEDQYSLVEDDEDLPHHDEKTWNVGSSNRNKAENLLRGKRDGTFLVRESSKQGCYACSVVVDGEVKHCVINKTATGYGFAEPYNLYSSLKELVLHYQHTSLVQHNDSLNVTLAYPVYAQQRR
# T7 sequence (O75716 whole entry): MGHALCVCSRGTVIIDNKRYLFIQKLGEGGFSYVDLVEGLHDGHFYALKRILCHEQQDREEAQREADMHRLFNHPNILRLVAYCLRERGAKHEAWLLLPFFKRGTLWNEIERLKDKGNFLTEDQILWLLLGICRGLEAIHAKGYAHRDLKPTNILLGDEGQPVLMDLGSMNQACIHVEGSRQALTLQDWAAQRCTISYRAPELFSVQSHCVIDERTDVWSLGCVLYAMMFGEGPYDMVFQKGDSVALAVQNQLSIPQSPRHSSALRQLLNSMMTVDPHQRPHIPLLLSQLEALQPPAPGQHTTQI
# T10 sequence (O00750 whole entry): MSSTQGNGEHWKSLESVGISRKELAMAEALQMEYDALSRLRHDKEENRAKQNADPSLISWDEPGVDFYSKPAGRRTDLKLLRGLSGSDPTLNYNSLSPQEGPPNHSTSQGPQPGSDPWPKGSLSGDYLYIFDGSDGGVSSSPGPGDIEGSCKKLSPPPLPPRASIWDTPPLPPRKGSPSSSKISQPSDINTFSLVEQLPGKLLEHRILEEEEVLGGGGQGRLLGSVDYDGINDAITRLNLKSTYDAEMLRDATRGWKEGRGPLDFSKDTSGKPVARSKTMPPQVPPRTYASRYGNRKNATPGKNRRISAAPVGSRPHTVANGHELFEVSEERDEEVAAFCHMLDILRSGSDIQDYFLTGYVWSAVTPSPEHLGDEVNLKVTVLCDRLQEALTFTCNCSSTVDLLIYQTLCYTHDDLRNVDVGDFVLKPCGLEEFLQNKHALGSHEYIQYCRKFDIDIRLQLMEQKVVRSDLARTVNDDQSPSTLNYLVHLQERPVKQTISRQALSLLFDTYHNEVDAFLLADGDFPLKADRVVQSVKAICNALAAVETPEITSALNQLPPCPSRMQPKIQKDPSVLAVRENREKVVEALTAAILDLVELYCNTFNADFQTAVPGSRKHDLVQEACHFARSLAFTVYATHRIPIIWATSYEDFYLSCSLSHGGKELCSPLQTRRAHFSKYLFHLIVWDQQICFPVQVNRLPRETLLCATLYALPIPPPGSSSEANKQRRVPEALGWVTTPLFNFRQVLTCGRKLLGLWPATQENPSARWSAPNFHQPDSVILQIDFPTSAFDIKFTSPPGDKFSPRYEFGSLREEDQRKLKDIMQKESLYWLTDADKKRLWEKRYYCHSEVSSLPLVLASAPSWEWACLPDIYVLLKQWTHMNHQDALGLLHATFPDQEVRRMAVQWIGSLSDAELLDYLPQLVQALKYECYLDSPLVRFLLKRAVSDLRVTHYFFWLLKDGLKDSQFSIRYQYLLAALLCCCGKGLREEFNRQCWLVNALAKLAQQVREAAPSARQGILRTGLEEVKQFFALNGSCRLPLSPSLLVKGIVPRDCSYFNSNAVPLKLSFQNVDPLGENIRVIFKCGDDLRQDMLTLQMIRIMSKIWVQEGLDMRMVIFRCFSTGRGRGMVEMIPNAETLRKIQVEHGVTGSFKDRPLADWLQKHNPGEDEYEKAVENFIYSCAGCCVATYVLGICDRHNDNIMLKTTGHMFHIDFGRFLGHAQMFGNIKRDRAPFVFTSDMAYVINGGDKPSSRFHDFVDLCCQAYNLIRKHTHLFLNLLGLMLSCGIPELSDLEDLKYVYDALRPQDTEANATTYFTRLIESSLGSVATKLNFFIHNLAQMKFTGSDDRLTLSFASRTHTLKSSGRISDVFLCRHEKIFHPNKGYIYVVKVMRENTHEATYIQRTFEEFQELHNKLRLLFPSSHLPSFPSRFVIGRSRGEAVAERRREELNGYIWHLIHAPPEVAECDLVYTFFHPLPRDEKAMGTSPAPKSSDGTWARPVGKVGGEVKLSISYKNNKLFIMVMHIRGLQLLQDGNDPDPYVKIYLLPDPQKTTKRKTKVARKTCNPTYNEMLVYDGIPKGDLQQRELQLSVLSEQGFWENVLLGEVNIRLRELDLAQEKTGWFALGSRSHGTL
smiles,measurement,setting,value
"Cn1cc(-c2cnc3ccc(NC(=O)Nc4ccc(F)c(C(F)(F)F)c4)cc3n2)cn1 [51-106, 1-(4-Fluoro-3-(trifluoromethyl)phenyl)-3-(3-(1-methyl-1H-pyrazol-4-yl)quinoxalin-6-yl)urea]",inhibition at 5 µM,[1],≤ 0%
same,inhibition at 5 µM,[2],≤ 0%
same,% Inhibition,[3],15.4%
same,inhibition at 5 µM,[4],14.3%
same,inhibition at 5 µM,[5],≤ 0%
same,inhibition at 5 µM,[6],6.6%
same,% Inhibition,"[7]; 5 µM, Lys1, NKETGALAAAKVIETK",NB (NB = No Binding (≤ 0))
same,inhibition at 5 µM,"[7]; Lys2, […]",≤ 0%
same,inhibition at 5 µM,[8],≤ 0%
same,inhibition at 5 µM,[9],≤ 0%
same,% Inhibition,[10],NB (NB = No Binding (≤ 0))
same,inhibition at 5 µM,"[11]; ATP Loop, LGDYGLAKK",≤ 0%
same,inhibition at 5 µM,"[11]; Lys1, RTEDDSLVVWKEVDLTR",0.6%
same,inhibition at 5 µM,"[11]; Lys2, DIKTLNIFLTK",13.8%
same,inhibition at 5 µM,[12],2.9%
same,inhibition at 5 µM,[13],≤ 0%
same,inhibition at 5 µM,[14],≤ 0%
same,inhibition at 5 µM,[15],10.6%
same,% Inhibition,[16],4.9%
